Measurements: US20080275134A1, “Methods for Treatment of Retinal Degenerative Disease” (University of Washington, priority 2005, published 2008)

What was measured:
[1] = test system: retinyl acetate hydrolase; assay: direct assay of retinyl acetate hydrolase present in the RPE; format: biochemical; conditions: direct assays
RPE65 = target: T1, RPE65 (Bos taurus, UniProt Q28175); assay: gel filtration of RPE proteins with anti-RPE65 immunoblot; format: binding, bovine; conditions: RPE65 found in fractions 23-34
T1 construct: RPE microsomes were solubilized with 10 mM DHPC; from tissue; host or cells: bovine RPE microsomes, DHPC extract
Protocol: The specificity of Ret-NH2 was further tested by biochemical assays. […] When the RPE microsomes were solubilized with DHPC, the isomerase activity decreased only slightly. Then [^3H]-Ret-NH2 was added to the RPE extract and loaded on a gel filtration column. Proteins were fractionated and eluted between fractions 18 and 60 (FIG. 3A), while the radioactivity was eluted in fractions 36-38. RPE65 was identified by immunoblotting in fractions 23-34 (FIG. 3B). The most abundant proteins in this fraction were identified by mass spectrometry and include glucose phosphate isomerase, D-glyceraldehyde-3-phosphate dehydrogenase, phosphoglycerate mutase, triose phosphate isomerase, enolase, annexin V, calbindin 2, and LRAT. Identification of less abundant proteins is in progress.
RPE microsomes were solubilized with 10 mM DHPC, incubated with 11,12-di[^3H]-all-trans-Ret-NH2 (1 μM), and loaded on a Superdex 200 column equilibrated with Tris/HCl buffer, pH 7.5, containing 4 mM DHPC. Proteins were eluted with a constant flow rate of 0.4 ml/min. The protein and radioactivity levels of 0.4 ml fractions were examined by SDS-PAGE and scintillation counting (A), and immunoblot with anti-RPE65 and anti-LRAT antibodies (B). The star indicates the fraction associated with maximum radioactivity.

RXR = target: T2, RXR (Mus musculus, UniProt P28700); assay: HEK-293 cells with DR1-lacZ reporter and mouse RXRA, β-galactosidase activity; format: cell-based; conditions: 48 hours treatment, micromolar concentrations
T2 construct: The RXR-A ORF was then subcloned into pcDNA3.1 Directional TOPO vector; expressed in transfected cells; host or cells: HEK-293, transient transfection with pcDNA3.1 Directional TOPO
T2 sequence (P28700 1-467): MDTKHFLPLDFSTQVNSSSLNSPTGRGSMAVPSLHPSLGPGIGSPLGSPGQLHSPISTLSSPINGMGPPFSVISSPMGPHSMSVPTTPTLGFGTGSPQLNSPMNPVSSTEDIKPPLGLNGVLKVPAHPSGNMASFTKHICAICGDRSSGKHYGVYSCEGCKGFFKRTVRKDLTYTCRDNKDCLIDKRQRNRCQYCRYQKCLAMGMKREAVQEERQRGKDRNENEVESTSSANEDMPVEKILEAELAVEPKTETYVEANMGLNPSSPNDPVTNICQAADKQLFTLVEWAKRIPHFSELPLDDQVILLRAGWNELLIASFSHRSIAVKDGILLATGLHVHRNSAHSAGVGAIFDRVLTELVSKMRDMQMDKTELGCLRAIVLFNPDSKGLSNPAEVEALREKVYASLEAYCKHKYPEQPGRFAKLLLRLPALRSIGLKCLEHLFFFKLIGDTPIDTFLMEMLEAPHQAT

RAR = assay: F9-RARE-lacZ reporter cell line, β-galactosidase activity (DR5 elements); format: cell-based; conditions: 24 hours treatment, micromolar concentrations
Description: 13-cis-RA can isomerize to all-trans-RA and then to 9-cis-RA, both of which are potent ligands of the RA receptor (RAR). 9-cis-RA also binds and activates the retinoid X receptor (RXR). This contributes to the toxicity of the RAR and RXR ligands. It was investigated whether Ret-NH2 can activate these nuclear receptor using reporter-cells as described previously (20). A β-galactosidase activity assay was employed to examine if all-trans-RA, 9-cis-RA, and Ret-NH2 are agonists for these nuclear receptors.
F9-RARE-lacZ cells express endogenous RAR and RXR and were transfected with a construct of lacZ under the control of a minimal promoter and upstream DR5 elements (1). F9-RARE-lacZ cells were treated with different doses of all-trans-RA or Ret-NH2 for 24 hours after which the cells were harvested and the β-galactosidase activity was measured using the soluble substrate o-nitrophenyl β-D-galactopyranoside. The colorless substrate was cleaved by β-galactosidase to yellow colored o-nitrophenol, whose absorbance was measured at 420 nm using a spectrophotometer. The experiment was repeated twice with similar results. The RARE reporter cell line F9-RARE-lacZ (SIL15-RA) was a kind gift from Dr. Michael Wagner (SUNY Downstate Medical Center) and Dr. Peter McCaffery (University of Massachusetts Medical School). […]

[2] = observation of mice for systemic toxicity after oral gavage; format: in vivo; conditions: single doses 0.5 to 100 mg/kg

T1 sequence (Q28175 whole entry): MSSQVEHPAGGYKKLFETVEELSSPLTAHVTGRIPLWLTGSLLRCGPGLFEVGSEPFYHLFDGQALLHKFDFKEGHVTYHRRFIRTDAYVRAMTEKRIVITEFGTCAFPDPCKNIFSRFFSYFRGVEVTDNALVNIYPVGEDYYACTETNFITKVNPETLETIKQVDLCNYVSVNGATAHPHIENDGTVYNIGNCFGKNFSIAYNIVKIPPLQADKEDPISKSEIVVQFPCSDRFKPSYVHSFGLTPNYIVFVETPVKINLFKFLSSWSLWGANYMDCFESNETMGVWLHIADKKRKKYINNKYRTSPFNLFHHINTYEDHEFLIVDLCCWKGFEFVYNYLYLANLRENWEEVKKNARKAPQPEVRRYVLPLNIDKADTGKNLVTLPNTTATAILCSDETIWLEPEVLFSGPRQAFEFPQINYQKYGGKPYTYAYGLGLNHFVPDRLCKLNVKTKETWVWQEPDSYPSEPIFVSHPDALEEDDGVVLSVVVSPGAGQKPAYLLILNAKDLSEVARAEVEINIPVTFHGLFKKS

SMILES	inhibition of retinyl acetate hydrolase [1]	binding to RPE65 (RPE65)	activation of transcription through RXR (DR1 elements) (RXR)	activation of transcription through RAR (DR5 RARE) (RAR)	symptoms of systemic toxicity such as weight loss or gastrointestinal disorder [2]
CC1=C(/C=C/C(C)=C/C=C/C(C)=C/CN)C(C)(C)CCC1 [Ret-NH2, Retinylamine]	did not inhibited	does not bind	–	–	–
CC1=C(/C=C/C(C)=C/C=C/C(C)=C/CN)C(C)(C)CCC1 [all-trans-Ret-NH2, all-trans-retinylamine]	–	–	does not activate protein transcription	does not activate protein transcription	did not exhibit symptoms of systemic toxicity
